How the values were obtained:
[1] = system: unsensitized BN rats; test: HDM extract challenge in unsensitized (naive) BN rats, duration of protection; type: in vivo; details: for performance in vivo (maximum inhibition of the eosinophil response, Figure 5A): focused library, durability of inhibition studies
[2] = target: T1, Der p 1 (Dermatophagoides pteronyssinus, UniProt P08176); type: biochemical; details: Figure 5A, in words
T1 construct: from tissue; host or cells: spent culture medium of Dermatophagoides pteronyssinus (native HDM extract); ammonium sulfate precipitation, size exclusion, SBTI column, Resource Q
T1 sequence (P08176 99-320): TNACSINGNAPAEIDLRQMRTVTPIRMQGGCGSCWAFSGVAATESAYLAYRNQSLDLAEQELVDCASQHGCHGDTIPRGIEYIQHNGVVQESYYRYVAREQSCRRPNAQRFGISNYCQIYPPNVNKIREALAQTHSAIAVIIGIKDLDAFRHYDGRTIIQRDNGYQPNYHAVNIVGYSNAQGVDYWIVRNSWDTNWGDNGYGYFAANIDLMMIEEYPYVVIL
Description: Assays were assembled in 96-well plate format using a PerkinElmer Multiprobe II Plus HTS EX robot (PerkinElmer, UK). […] Reactions were initiated by the addition of 10 μL Der p 1 dissolved in the reaction buffer at 2.5 μg/mL and followed at 30 °C by measurement of fluorescence (excitation/emission 330/420 nm) using either a Fusion Alpha-FP or Envision plate reader fitted with a temperature-controlled carrier (PerkinElmer, UK).
Inhibitor kinetics were analyzed from progress curves. For reversible inhibitors, IC50 values were calculated conventionally.

[3] = all time points, naive BN rats, HDM extract 10 µg Der p 1, single i.t. aerosol dose 50:1 molar equivalents
[4] = time points other than the stated exceptions, 50:1 molar equivalents i.t. aerosol
[5] = all time points, naive BN rats, HDM extract 10 µg Der p 1, single i.t. aerosol dose 50:1 molar equivalents to Der p 1
[6] = all other time points than those stated not significant, 50:1 molar equivalents

Molecule	BAL neutrophil response: significance of effect (P<0.05) [1, 3]	performance in vivo (maximum inhibition of the eosinophil response, Figure 5A) [1]	Reduction in BAL eosinophil response: significance of inhibition (P<0.05) [1, 4]	potency against the target molecule in vitro [2]	Reduction in BAL eosinophil response: significance of inhibition (P<0.05) [1, 5]	BAL neutrophil response: significance of effect (P<0.05) ([1]; pre-treatment at 60 min)	other results
CC(C)[C@H](NC(=O)[C@H](C)NC(=O)[C@@H](NC(=O)c1ccnc2ccccc12)C(C)(C)C)C(=O)C(=O)NCC(=O)N1CCN(C(C)C)CC1 [Compound 10, quinoline-4-carboxylic acid [(S)-1-((S)-1-{(S)-1-[2-(4-isopropyl-piperazin-1-yl)-2-oxo-ethylaminooxalyl]-2-methyl-propylcarbamoyl}-ethylcarbamoyl)-2,2-dimethyl-propyl]-amide]	not significant	performed less satisfactorily	significant	potent	–	–	–
CC(C)[C@H](NC(=O)[C@H](C)NC(=O)[C@@H](NC(=O)c1ccccc1)C12CC3CC(CC(C3)C1)C2)C(=O)C(=O)NCC(=O)N1CCN(C)CC1 [Compound 15, N-[(S)-adamantan-1-yl-((S)-1-{(S)-2-methyl-1-[2-(4-methyl-piperazin-1-yl)-2-oxo-ethylaminooxalyl]-propylcarbamoyl}-ethylcarbamoyl)-methyl]-benzamide]	significant	useful in vivo activity	–	–	significant	–	–
CC(C)[C@H](NC(=O)[C@H](C)NC(=O)[C@H](Cc1ccccc1)NC(=O)c1ccncc1)C(=O)C(=O)NCc1ccccc1 [Compound 11, N-((S)-1-(((S)-1-(((S)-1-(benzylamino)-4-methyl-1,2-dioxopentan-3-yl)amino)-1-oxopropan-2-yl)amino)-1-oxo-3-phenylpropan-2-yl)isonicotinamide]	not significant	effective	–	less potent than others	significant	–	–
CC(C)[C@H](NC(=O)[C@H](C)NC(=O)[C@H](Cc1ccccc1)NC(=O)c1cccc2ccccc12)C(=O)C(=O)NCC(=O)N1CCN(C)CC1 [Compound 8, N-((S)-1-(((S)-1-(((S)-4-methyl-1-((2-(4-methylpiperazin-1-yl)-2-oxoethyl)amino)-1,2-dioxopentan-3-yl)amino)-1-oxopropan-2-yl)amino)-1-oxo-3-phenylpropan-2-yl)-1-naphthamide]	–	effective	–	less potent than others	significant	not significant	BAL neutrophil response: significance of effect (P<0.05) [1, 6]: significant
CC(C)[C@H](NC(=O)[C@H](C)NC(=O)[C@@H](NC(=O)c1ccnc2ccccc12)C(C)(C)C)C(=O)C(=O)NCc1ccccc1 [Compound 5, quinoline-4-carboxylic acid {(S)-1-[(S)-1-((S)-1-benzylaminooxalyl-2-methyl-propylcarbamoyl)-ethylcarbamoyl]-2,2-dimethyl-propyl}-amide]	significant	effective	–	less potent than others	significant	–	onset: temporal separation between drug dosing and HDM challenge required to achieve 50% inhibition of the eosinophil response ([1]; estimated, Figure 5D–F, in words): slower onset
CC(C)[C@H](NC(=O)[C@H](C)NC(=O)[C@@H](NC(=O)c1ccccc1C(=O)O)C(C)(C)C)C(=O)C(=O)NCC(=O)N1CCN(C)CC1 [Compound 14, 2-(((S)-3,3-dimethyl-1-(((S)-1-(((S)-4-methyl-1-((2-(4-methylpiperazin-1-yl)-2-oxoethyl)amino)-1,2-dioxopentan-3-yl)amino)-1-oxopropan-2-yl)amino)-1-oxobutan-2-yl)carbamoyl)benzoic acid]	significant	–	–	–	significant	–	–
N-((S)-1-(((S)-1-(((S)-1-(cyclohexylamino)-4-methyl-1,2-dioxopentan-3-yl)amino)-1-oxopropan-2-yl)amino)-3,3-dimethyl-1-oxobutan-2-yl)isoquinoline-4-carboxamide [Compound 6]	–	–	significant	–	–	not significant	BAL neutrophil response: significance of effect (P<0.05) [1, 6]: significant; BAL neutrophil response: significance of effect (P<0.05) ([1]; pre-treatment at 120 min): not significant
3-((3S,6S,9S)-3-benzyl-9-isopropyl-6-methyl-1,4,7,10,11-pentaoxo-1-phenyl-2,5,8,12-tetraazatridecan-13-yl)benzoic acid [Compound 7]	–	effective	significant	less potent than others	–	not significant	BAL neutrophil response: significance of effect (P<0.05) [1, 6]: significant; BAL neutrophil response: significance of effect (P<0.05) ([1]; pre-treatment at 120 min): not significant; BAL neutrophil response: significance of effect (P<0.05) ([1]; pre-treatment at 360 min): not significant
CC(C)[C@H](NC(=O)[C@H](C)NC(=O)[C@H](Cc1ccccc1)NC(=O)c1ccccc1)C(=O)C(=O)NCC(=O)N1CC[N+](C)(C)CC1.O=C[O-] [Compound 4, 4-(2-{(S)-3-[(S)-2-((S)-2-benzoylamino-3-phenyl-propionylamino)-propionylamino]-4-methyl-2-oxo-pentanoylamino}-acetyl)-1,1-dimethyl-piperazin-1-ium formate]	significant	effective	–	less potent than others	significant	–	–
CC(C)[C@H](NC(=O)[C@H](C)NC(=O)[C@@H](NC(=O)c1ccccc1)C(C)(C)C)C(=O)C(=O)NCC(=O)N1CCc2ccccc2C1 [Compound 3, N-[(S)-1-((S)-1-{(S)-1-[2-(3,4-dihydro-1H-isoquinolin-2-yl)-2-oxo-ethylaminooxalyl]-2-methyl-propylcarbamoyl}-ethylcarbamoyl)-2,2-dimethyl-propyl]-benzamide]	significant	–	–	–	significant	–	–
CC(C)[C@H](NC(=O)[C@H](C)NC(=O)[C@@H](NC(=O)c1ccncc1)C(C)(C)C)C(=O)C(=O)NC1CCCCC1 [Compound 12, N-{(S)-1-[(S)-1-((S)-1-cyclohexylaminooxalyl-2-methyl-propylcarbamoyl)-ethylcarbamoyl]-2,2-dimethyl-propyl}-isonicotinamide]	–	–	–	–	significant	–	–
CC(C)[C@H](NC(=O)[C@H](C)NC(=O)[C@H](Cc1ccccc1)NC(=O)c1ccccc1)C(=O)C(=O)NCC(=O)N1CCOCC1 [Compound 13, N-((S)-1-{(S)-1-[(S)-2-methyl-1-(2-morpholin-4-yl-2-oxo-ethylaminooxalyl)-propylcarbamoyl]-ethylcarbamoyl}-2-phenyl-ethyl)-benzamide]	–	–	–	–	significant	not significant	BAL neutrophil response: significance of effect (P<0.05) ([1]; pre-treatment at 240 min): not significant
CNC(=O)c1ccc(CNC(=O)C(=O)[C@@H](NC(=O)[C@H](C)NC(=O)[C@@H](N2Cc3ccccc3C2=O)C(C)(C)C)C(C)C)cc1 [Compound 9, 4-[((S)-3-{(S)-2-[(S)-3,3-dimethyl-2-(1-oxo-1,3-dihydro-isoindol-2-yl)-butyrylamino]-propionylamino}-4-methyl-2-oxo-pentanoylamino)-methyl]-N-methyl-benzamide]	not significant	–	significant	–	–	–	–

Source: PMC9469500, “Targeting an Initiator Allergen Provides Durable and Expansive Protection against House Dust Mite Allergy” (ACS Pharmacology & Translational Science, 2022)
